Source: ChEMBL document CHEMBL3885881, “DrugMatrix”

Species on record: Rattus norvegicus
Test: DrugMatrix - Regimen: Daily Repeat
Assay type: toxicity, organism-based, Sprague-Dawley
Parameters: regimen Daily Repeat, gender Male, age 6-8 weeks
Details: in vivo, po, route oral GAVAGE; for POTASSIUM / ALANINE AMINOTRANSFERASE / ALBUMIN / ALKALINE PHOSPHATASE / ASPARTATE AMINOTRANSFERASE / BLOOD UREA NITROGEN / CARBON DIOXIDE / CHLORIDE / CHOLESTEROL / CREATINE PHOSPHOKINASE / CREATININE / GLUCOSE / LACTATE DEHYDROGENASE / LIPASE / PHOSPHORUS / SODIUM / TOTAL BILIRUBIN / TOTAL PROTEIN / URIC ACID: tissue Plasma; for ABSOLUTE BASOPHIL / ABSOLUTE EOSINOPHIL / ABSOLUTE LYMPHOCYTE / ABSOLUTE MONOCYTE / ABSOLUTE SEGMENTED NEUTROPHIL / BASOPHIL / EOSINOPHIL / ERYTHROCYTE COUNT / HEMATOCRIT / HEMOGLOBIN / LEUKOCYTE COUNT / LYMPHOCYTE / MEAN CORPUSCULAR HEMOGLOBIN / MEAN CORPUSCULAR HEMOGLOBIN CONCENTRATION / MEAN CORPUSCULAR VOLUME / MONOCYTE / NEUTROPHIL / NUCLEATED RED BLOOD CELLS / PLATELET COUNT: tissue Blood
[1] = 80 mg/kg, 72 h, dose level Low, time 3 day, vehicle .5 % CMC
[2] = 80 mg/kg, 120 h, dose level Low, time 5 day, vehicle .5 % CMC
[3] = 1500 mg/kg, 72 h, dose level High, time 3 day, vehicle .5 % CMC
[4] = 1500 mg/kg, 120 h, dose level High, time 5 day, vehicle .5 % CMC

SMILES: COc1ccc(CCN(C)CCCC(C#N)(c2ccc(OC)c(OC)c2)C(C)C)cc1OC (centres undefined)
- POTASSIUM (20 mg/kg, 72 h, dose level Low, time 3 day, vehicle 100 % WATER): 6.68 MEQ/L
- POTASSIUM (20 mg/kg, 120 h, dose level Low, time 5 day, vehicle 100 % WATER): 6.29 MEQ/L

SMILES: O=c1cnn([C@@H]2O[C@H](CO)[C@@H](O)[C@H]2O)c(=O)[nH]1 [6-AZAURIDINE]
- ABSOLUTE BASOPHIL [1]: 0 CELLS/uL
- ABSOLUTE EOSINOPHIL [1]: 0 CELLS/uL
- ABSOLUTE LYMPHOCYTE [1]: 15386 CELLS/uL
- ABSOLUTE MONOCYTE [1]: 95.33 CELLS/uL
- ABSOLUTE SEGMENTED NEUTROPHIL [1]: 852 CELLS/uL
- BASOPHIL [1]: 0%
- EOSINOPHIL [1]: 0%
- ERYTHROCYTE COUNT [1]: 5.24 x10E6/uL
- HEMATOCRIT [1]: 34.9%
- HEMOGLOBIN [1]: 13.33 G/DL
- LEUKOCYTE COUNT [1]: 16.33 x10E3/uL
- LYMPHOCYTE [1]: 94%
- MEAN CORPUSCULAR HEMOGLOBIN [1]: 25.47 pg
- MEAN CORPUSCULAR HEMOGLOBIN CONCENTRATION [1]: 38.2 G/DL
- MEAN CORPUSCULAR VOLUME [1]: 66.6 fL
- MONOCYTE [1]: 0.67%
- NEUTROPHIL [1]: 5.33%
- NUCLEATED RED BLOOD CELLS [1]: 0.33 /100WBC
- PLATELET COUNT [1]: 1177.67 x10E3/uL
- ALANINE AMINOTRANSFERASE [1]: 32.67 u/L
- ALBUMIN [1]: 4.23 G/DL
- ALKALINE PHOSPHATASE [1]: 410.67 u/L
- ASPARTATE AMINOTRANSFERASE [1]: 74.33 u/L
- BLOOD UREA NITROGEN [1]: 15.33 mg/dL
- CARBON DIOXIDE [1]: 25 mmol/L
- CHLORIDE [1]: 106.67 MEQ/L
- CHOLESTEROL [1]: 73.67 mg/dL
- CREATINE PHOSPHOKINASE [1]: 134.33 u/L
- CREATININE [1]: 0.2 mg/dL
- GLUCOSE [1]: 173.33 mg/dL
- LACTATE DEHYDROGENASE [1]: 86.67 u/L
- LIPASE [1]: 10.33 u/L
- PHOSPHORUS [1]: 12.67 mg/dL
- POTASSIUM [1]: 6.8 MEQ/L
- SODIUM [1]: 148.73 MEQ/L
- TOTAL BILIRUBIN [1]: 0.2 mg/dL
- TOTAL PROTEIN [1]: 5.93 G/DL
- URIC ACID [1]: 1.7 mg/dL
- ABSOLUTE BASOPHIL [2]: 0 CELLS/uL
- ABSOLUTE EOSINOPHIL [2]: 0 CELLS/uL
- ABSOLUTE LYMPHOCYTE [2]: 12013.67 CELLS/uL
- ABSOLUTE MONOCYTE [2]: 153.67 CELLS/uL
- ABSOLUTE SEGMENTED NEUTROPHIL [2]: 1099.33 CELLS/uL
- BASOPHIL [2]: 0%
- EOSINOPHIL [2]: 0%
- ERYTHROCYTE COUNT [2]: 5.94 x10E6/uL
- HEMATOCRIT [2]: 37.2%
- HEMOGLOBIN [2]: 13.73 G/DL
- LEUKOCYTE COUNT [2]: 13.27 x10E3/uL
- LYMPHOCYTE [2]: 90.67%
- MEAN CORPUSCULAR HEMOGLOBIN [2]: 23.2 pg
- MEAN CORPUSCULAR HEMOGLOBIN CONCENTRATION [2]: 36.93 G/DL
- MEAN CORPUSCULAR VOLUME [2]: 62.77 fL
- MONOCYTE [2]: 1.33%
- NEUTROPHIL [2]: 8%
- NUCLEATED RED BLOOD CELLS [2]: 0.33 /100WBC
- PLATELET COUNT [2]: 1474.67 x10E3/uL
- ALANINE AMINOTRANSFERASE [2]: 38 u/L
- ALBUMIN [2]: 4.23 G/DL
- ALKALINE PHOSPHATASE [2]: 363.67 u/L
- ASPARTATE AMINOTRANSFERASE [2]: 88.33 u/L
- BLOOD UREA NITROGEN [2]: 20.33 mg/dL
- CARBON DIOXIDE [2]: 22 mmol/L
- CHLORIDE [2]: 104.33 MEQ/L
- CHOLESTEROL [2]: 68 mg/dL
- CREATINE PHOSPHOKINASE [2]: 230.33 u/L
- CREATININE [2]: 0.22 mg/dL
- GLUCOSE [2]: 166.67 mg/dL
- LACTATE DEHYDROGENASE [2]: 119.33 u/L
- LIPASE [2]: 10.33 u/L
- PHOSPHORUS [2]: 13.2 mg/dL
- POTASSIUM [2]: 6.55 MEQ/L
- SODIUM [2]: 146.7 MEQ/L
- TOTAL BILIRUBIN [2]: 0.13 mg/dL
- TOTAL PROTEIN [2]: 6.17 G/DL
- URIC ACID [2]: 2.23 mg/dL
- ABSOLUTE BASOPHIL [3]: 0 CELLS/uL
- ABSOLUTE EOSINOPHIL [3]: 0 CELLS/uL
- ABSOLUTE LYMPHOCYTE [3]: 9340.33 CELLS/uL
- ABSOLUTE MONOCYTE [3]: 29.33 CELLS/uL
- ABSOLUTE SEGMENTED NEUTROPHIL [3]: 363.67 CELLS/uL
- BASOPHIL [3]: 0%
- EOSINOPHIL [3]: 0%
- ERYTHROCYTE COUNT [3]: 5.26 x10E6/uL
- HEMATOCRIT [3]: 32.03%
- HEMOGLOBIN [3]: 12.07 G/DL
- LEUKOCYTE COUNT [3]: 9.73 x10E3/uL
- LYMPHOCYTE [3]: 96%
- MEAN CORPUSCULAR HEMOGLOBIN [3]: 22.9 pg
- MEAN CORPUSCULAR HEMOGLOBIN CONCENTRATION [3]: 37.7 G/DL
- MEAN CORPUSCULAR VOLUME [3]: 60.9 fL
- MONOCYTE [3]: 0.33%
- NEUTROPHIL [3]: 3.67%
- NUCLEATED RED BLOOD CELLS [3]: 0 /100WBC
- PLATELET COUNT [3]: 1317.67 x10E3/uL
- ALANINE AMINOTRANSFERASE [3]: 17.33 u/L
- ALBUMIN [3]: 4.3 G/DL
- ALKALINE PHOSPHATASE [3]: 341 u/L
- ASPARTATE AMINOTRANSFERASE [3]: 104.67 u/L
- BLOOD UREA NITROGEN [3]: 15.33 mg/dL
- CARBON DIOXIDE [3]: 18.67 mmol/L
- CHLORIDE [3]: 104.33 MEQ/L
- CHOLESTEROL [3]: 69.33 mg/dL
- CREATINE PHOSPHOKINASE [3]: 704 u/L
- CREATININE [3]: 0.25 mg/dL
- GLUCOSE [3]: 179.67 mg/dL
- LACTATE DEHYDROGENASE [3]: 167.67 u/L
- LIPASE [3]: 10 u/L
- PHOSPHORUS [3]: 12.03 mg/dL
- POTASSIUM [3]: 6.43 MEQ/L
- SODIUM [3]: 147.5 MEQ/L
- TOTAL BILIRUBIN [3]: 0.2 mg/dL
- TOTAL PROTEIN [3]: 5.87 G/DL
- URIC ACID [3]: 1.67 mg/dL
- ABSOLUTE BASOPHIL [4]: 0 CELLS/uL
- ABSOLUTE EOSINOPHIL [4]: 44.67 CELLS/uL
- ABSOLUTE LYMPHOCYTE [4]: 13100 CELLS/uL
- ABSOLUTE MONOCYTE [4]: 44.67 CELLS/uL
- ABSOLUTE SEGMENTED NEUTROPHIL [4]: 1177.33 CELLS/uL
- BASOPHIL [4]: 0%
- EOSINOPHIL [4]: 0.33%
- ERYTHROCYTE COUNT [4]: 4.96 x10E6/uL
- HEMATOCRIT [4]: 30%
- HEMOGLOBIN [4]: 11.57 G/DL
- LEUKOCYTE COUNT [4]: 14.37 x10E3/uL
- LYMPHOCYTE [4]: 91%
- MEAN CORPUSCULAR HEMOGLOBIN [4]: 23.37 pg
- MEAN CORPUSCULAR HEMOGLOBIN CONCENTRATION [4]: 38.53 G/DL
- MEAN CORPUSCULAR VOLUME [4]: 60.57 fL
- MONOCYTE [4]: 0.33%
- NEUTROPHIL [4]: 8.33%
- NUCLEATED RED BLOOD CELLS [4]: 0 /100WBC
- PLATELET COUNT [4]: 1665.67 x10E3/uL
- ALANINE AMINOTRANSFERASE [4]: 14.33 u/L
- ALBUMIN [4]: 3.5 G/DL
- ALKALINE PHOSPHATASE [4]: 153 u/L
- ASPARTATE AMINOTRANSFERASE [4]: 98.33 u/L
- BLOOD UREA NITROGEN [4]: 16.33 mg/dL
- CARBON DIOXIDE [4]: 33 mmol/L
- CHLORIDE [4]: 105.33 MEQ/L
- CHOLESTEROL [4]: 68.67 mg/dL
- CREATINE PHOSPHOKINASE [4]: 888.33 u/L
- CREATININE [4]: 0.12 mg/dL
- GLUCOSE [4]: 159 mg/dL
- LACTATE DEHYDROGENASE [4]: 129 u/L
- LIPASE [4]: 9.33 u/L
- PHOSPHORUS [4]: 11.03 mg/dL
- POTASSIUM [4]: 6.72 MEQ/L
- SODIUM [4]: 145.83 MEQ/L
- TOTAL BILIRUBIN [4]: 0.2 mg/dL
- TOTAL PROTEIN [4]: 4.83 G/DL
- URIC ACID [4]: 1.5 mg/dL
